Reference: patent publication US20130195926A1, “MODULATION OF NITRIC OXIDE SIGNALING TO NORMALIZE TUMOR VASCULATURE” (The General Hospital Corporation, priority 2007, published 2013)

Assays:
[1] = system: HIF-1α; assay: Western blot of HIF-1α expression in U87 tumors; format: in vivo; conditions: for HIF-1α protein levels, % of that in U87MG tumors: Western blot; for hypoxia inducible factor-1α (HIF-1α) protein levels: compared to U87MG tumors
Procedure: FIGS. 9A-E show the effect of nNOS silencing in U87 gliomas on tumor tissue oxygenation. Tissues shown in (A) were harvested and stained after injection of pimonidazole (60 mg/kg), followed by biotinylated lectin. Confocal laser scanning microscopy images (top row) of Hypoxyprobe™-1 adducts stained hypoxic cells (red), lectin-bound perfused blood vessels (green) and nuclei (blue) in U87MG, U87-shRNA58, and […] are 630 μm across. Binarized images (bottom row) of above confocal images. Bar indicates 100 μm. (B-C) Quantification of vessel segments (B) and vessel perimeter (C). (D) Quantification of hypoxic area. n=7, 3, 4 respectively. *p<0.05, as compared to U87MG tumors. (E) Western blot analysis of HIF-1α expression in U87MG and nNOS-snRNA-transfected U87 tumors. HIF-1α protein levels in U87-shRNA58 and U87-shRNA150 tumors were 46% and 59% of that in U87MG tumors, respectively. FIGS. 10A-C show the effect of nNOS silencing in U87 gliomas on fractionated radiation therapy. (A) Tumor growth normalized to day 0 tumor volume. (B) Tumor growth delay evaluated at the levels of 2, 4, and 6 times Vo. *P<0.05 as compared to U87MG. (C) Kaplan-Meier survival plot. U87 control (n=9), sh58 control (n=7), sh150 control (n=9), U87 radiation (n=8), sh58 radiation (n=6), sh150 radiation (n=10). FIGS. 11A-D show in vitro radiosensitivity and post-radiation tumor vasculature in U87 tumors. (A) Intrinsic tumor cell radiosensitivity was evaluated with the clonogenic assay. Following irradiation, the cells were incubated 9-13 d for colony formation depending on the dose administered. The surviving fractions were corrected for initial and final multiplicities determined 4-6 h after plating and at the time of irradiation. Data are expressed as mean±s.d. (B-D) When U87MG and nNOS-silenced U87 tumors grown in the hindleg in Rag-1^−/− mice reached ˜100 mm^3 they received 8 Gy/d for 3 d. […] (C-D) Quantification of the number of vessel segments (C) and vessel perimeter (D). […]
(§1) Equal amounts of 60 micrograms of protein per sample were separated on 7.5% SDS polyacrylamide gels, transferred onto polyvinylidene fluoride membrane (Millipore), incubated with primary antibodies followed by secondary antibodies (the same antibodies used in immunohistochemistry studies. See Immunohistochemistry methods below), and detected using enhanced chemiluminescence (GE Healthcare) by exposure on autoradiography films (Kodak) (Xu, L., et al. 2005 Cancer Res. 65, 5711-5719; Canneliet, P., et al. 1998 Nature 394, 485-490; Xu, L., et al. 2002 Journal of Biological Chemistry 277, 11368-11374 (2002); and Xu, L., et al. 2004 Clinical Cancer Research 10, 701-707).
The extent of hypoxia was determined in U87MG, U87-shRNA58, and U87-shRNA150 tumors utilizing a redox marker pimonidazole (Hypoxyprobe™-1 Kit, Millipore). […]

[2] = system: nNOS; assay: Western blot of nNOS knockdown in U87 tumors grown in cranial windows; format: in vivo; conditions: U87 tumors in cranial windows in Rag-1-/- mice
Procedure: The stably transfected cells were selected with 80 μg/ml of hygromycin B. The expression of nNOS protein in U87 tumor cells and tissues was determined by'Western blot analysis. Cultured U87MG cells washed with PBS and U87MG tumors homogenized by a tissue grinder were solubilized in 40 mM Tris-HCl, pH 6.8, 2% SDS, 10% glycerol, 1% β-mercaptoethanol, 0.01% bromophenol blue with one Complete Mini Protease Inhibitor Cocktail tablet (Roche Diagnostics) per 50 ml buffer.
as §1
Recombination activating gene 1 (Rag-1^−/−) mice backcrossed to C57BL/6 background or severe combined immunodeficiency (SCID) mice, bred and maintained in an gnotobiotic animal facility, were used. To obtain source tumor tissue, U87 tumor cells in culture (1×10^6 cells) were injected subcutaneously into Rag-1^−/− or SCID mice matching the recipient mice. When the tumor reached about 8 mm in diameter, it was excised after euthanasia and a small piece (about 1 mm^3) of viable tumor tissue was implanted into a cranial window or subcutaneously into the calf area of the right hindlegs of the mice as previously described (Kashiwagi, S., et al. 2005 J. Clin. Invest. 115, 1816-1827; Kozin, S. V., et al. 2001 Cancer Research 61, 39-44). […]
U87 with nNOS shRNA (shRNA58, shRNA97, and shRNA150) were grown in cranial windows in Rag-1^−/− mice. Expression of nNOS in these tumors was determined by Western blot analysis. […]

shRNA150: short-hairpin RNA for nNOS, GGTCTATCCAATGTCCACA (sense), TGTGGACATTGGATAGACCTT (antisense), in pSilencer 3.1 H-1-hygro
HIF-1α protein levels, % of that in U87MG tumors [1]: 59%
hypoxia inducible factor-1α (HIF-1α) protein levels [1]: reduction
Knockdown efficiency of nNOS in vivo [2]: 96%

shRNA58: short-hairpin RNA for nNOS, CAAAGAGATCGACACCATC (sense), GATGGTGTCGATCTCTTTGTT (antisense), in pSilencer 3.1 H-1-hygro, stably transfected into U87MG
HIF-1α protein levels, % of that in U87MG tumors [1]: 46%
hypoxia inducible factor-1α (HIF-1α) protein levels [1]: reduction
Knockdown efficiency of nNOS in vivo [2]: 98%
